pIC50: −log10 of the molar value.
How the values were obtained:
[1] = molecular target: human recombinant TDO2 enzyme (Homo sapiens (Human), UniProt P48775); assay: Assay for TDO2 enzymatic activity determination; assay type: biochemical; conditions: human recombinant TDO2, L-Trp 1 mM, kynurenine absorbance at 480 nm
Description: The compounds of formula I, its subformulae, and enantiomers, salts and solvates thereof, are useful to inhibit the enzymatic activity of human TDO2. To measure the TDO2 activity, the procedure described in Dolusic et al. J. Med. Chem.; 2011, 54, […] was adapted: the reaction mixture contained (final concentrations) potassium phosphate buffer (50 mM, pH 7.5), ascorbic acid ([…]), methylene blue (0.125 μM), catalase (40 units/mL, from bovine liver, Sigma), and human recombinant TDO2 enzyme (prepared as described in Dolusic et al. J. Med. Chem.; 2011, 54, 5320-5334; 0.9 μg) without or with the compounds of the present invention at the indicated concentrations (total volume 112.5 μL). The reaction was initiated by the addition of 37.5 μL of L-Trp (final concentration 1 mM) at room temperature. The reaction was conducted at room temperature during one hour and stopped by the addition of 30 μL of 30% (w/v) trichloroacetic acid. To convert N-formylkynurenine into kynurenine, the reaction mixture was incubated at 65° C. for 30 min. […] Kynurenine concentrations were determined by measuring the absorbance at 480 nm. A standard curve was made with pure kynurenine. The TDO activity was measured as described above using ten serial concentrations of the compounds of the present invention. Data were fitted using the Prism™ software (GraphPad Software, Inc.) using standard parameters.

[2] = molecular target: hTDO2 in human glioblastoma A172 cells (Homo sapiens (Human), UniProt P48775); assay: Cellular assay for TDO2 activity determination in A172 cells; assay type: cell-based; conditions: overnight incubation, kynurenine absorbance at 480 nm
Procedure, shortened: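 Glioblastoma A172 cells with endogenous hTDO2, 1.25×10^4 cells/well, incubated overnight at 37° C. with ten serial compound concentrations in IMDM with 2% FBS. Supernatant kynurenine, after TCA precipitation and 4-(dimethylamino)-benzaldehyde reaction, read at 480 nm against kynurenine standard curve; data curve-fitted.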

hTDO2 in human glioblastoma A172 cells, sequence (P48775 whole entry): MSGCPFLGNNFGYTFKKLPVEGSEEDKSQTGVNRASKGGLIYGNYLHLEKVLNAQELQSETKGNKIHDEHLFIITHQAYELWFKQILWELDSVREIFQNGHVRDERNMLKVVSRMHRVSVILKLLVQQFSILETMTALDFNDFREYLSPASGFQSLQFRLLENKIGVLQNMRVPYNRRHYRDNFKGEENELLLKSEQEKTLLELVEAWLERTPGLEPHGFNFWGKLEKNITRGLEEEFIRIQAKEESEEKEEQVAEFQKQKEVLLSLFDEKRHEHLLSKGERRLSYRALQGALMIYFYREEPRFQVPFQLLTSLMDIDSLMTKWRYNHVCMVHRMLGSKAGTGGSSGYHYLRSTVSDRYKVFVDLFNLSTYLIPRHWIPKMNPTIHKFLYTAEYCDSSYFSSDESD
human recombinant TDO2 enzyme, sequence (P48775 whole entry): as above

Row | Compound | pIC50 [1] | pIC50 [2]
1 | CS(=O)(=O)c1ccc(-c2c[nH]c3cc(F)ccc23)cc1 [Example 1, 6-Fluoro-3-(4-methanesulfonyl-phenyl)-1H-indole] | 5.82 | 7.08
2 | CN(CCS(N)(=O)=O)S(=O)(=O)c1ccc(-c2c[nH]c3cc(F)ccc23)cc1 [Example 98, 4-(6-fluoro-1H-indol-3-yl)-N-methyl-N-(2-sulfamoylethyl)benzenesulfonamide] | 6.04 | 6.60
3 | N#Cc1cc(-c2c[nH]c3cc(F)ccc23)ccc1S(=O)(=O)N1CCNCC1 [Example 32, 5-(6-Fluoro-1H-indol-3-yl)-2-(piperazine-1-sulfonyl)-benzonitrile] | 6.14 | 6.77
4 | O=S(=O)(c1c(Cl)cc(-c2c[nH]c3cc(F)ccc23)cc1Cl)N1CCNCC1 [Example 76, 3-(3,5-dichloro-4-(piperazin-1-ylsulfonyl)phenyl)-6-fluoro-1H-indole] | 6.33 | 6.08
5 | Cc1cc(-c2c[nH]c3cc(F)ccc23)ccc1S(=O)(=O)N1CCNCC1 [Example 34, 6-fluoro-3-(3-methyl-4-(piperazin-1-ylsulfonyl)-phenyl)-1H-indole] | 6.28 | 6.54
6 | NCCNS(=O)(=O)c1cc(-c2c[nH]c3cc(F)ccc23)ccc1F [Example 43, N-(2-aminoethyl)-2-fluoro-5-(6-fluoro-1H-indol-3-yl)-benzenesulfonamide] |  | 6.39
7 | CN(C)CCN1CCN(S(=O)(=O)c2ccc(-c3c[nH]c4cc(F)ccc34)cc2)CC1=O [Example 149, 1-(2-(dimethylamino)ethyl)-4-((4-(6-fluoro-1H-indol-3-yl)phenyl)sulfonyl)piperazin-2-one] |  | 6.35
8 | CC(NS(=O)(=O)c1ccc(-c2c[nH]c3cc(F)ccc23)cc1)c1nncn1C (centres unmarked) [Example 85, 4-(6-fluoro-1H-indol-3-yl)-N-[1-(4-methyl-4H-1,2,4-triazol-3-yl)ethyl]benzenesulfonamide] |  | 6.41
9 | COc1ccc(-c2c[nH]c3cc(F)ccc23)cc1S(=O)(=O)NCCN [Example 33] |  | 6.04
10 | NCCNS(=O)(=O)c1cc(F)cc(-c2c[nH]c3cc(F)ccc23)c1 [Example 44, N-(2-aminoethyl)-3-fluoro-5-(6-fluoro-1H-indol-3-yl)-benzenesulfonamide] |  | 6.37
11 | CN(C)C(=O)n1cc(-c2ccc(S(=O)(=O)N3CCNCC3)cc2)c2ccc(F)cc21 [Example 47, 6-fluoro-N,N-dimethyl-3-(4-(piperazin-1-ylsulfonyl)phenyl)-1H-indole-1-carboxamide] |  | 5.02
12 | O=C1CCCN1CC1(O)CCN(S(=O)(=O)c2ccc(-c3c[nH]c4cc(F)ccc34)cc2)C1 (centres unmarked) [Example 127, 1-((1-((4-(6-fluoro-1H-indol-3-yl)phenyl)sulfonyl)-3-hydroxypyrrolidin-3-yl)methyl)pyrrolidin-2-one] |  | 4.07
13 | NCCNS(=O)(=O)c1cc(O)cc(-c2c[nH]c3cc(F)ccc23)c1 [Example 69, N-(2-aminoethyl)-3-(6-fluoro-1H-indol-3-yl)-5-hydroxy-benzenesulfonamide] |  | 6.48
14 | CN(CC(O)c1cnccn1)S(=O)(=O)c1ccc(-c2c[nH]c3cc(F)ccc23)cc1 (centres unmarked) [Example 135, 4-(6-fluoro-1H-indol-3-yl)-N-(2-hydroxy-2-(pyrazin-2-yl)ethyl)-N-methylbenzene-sulfonamide] |  | 6.79
15 | O=S(=O)(c1ccc(-c2c[nH]c3cc(F)ccc23)cc1)N1C[C@@H](F)C[C@H]1CO [Example 123, ((2S,4S)-4-fluoro-1-((4-(6-fluoro-1H-indol-3-yl)phenyl)sulfonyl)pyrrolidin-2-yl)methanol] |  | 6.86
16 | C[C@@H](O)[C@H](C)N(CCO)S(=O)(=O)c1ccc(-c2c[nH]c3cc(F)ccc23)cc1 [Example 111, 4-(6-fluoro-1H-indol-3-yl)-N-((2S,3R)-3-hydroxybutan-2-yl)-N-(2-hydroxyethyl)benzene sulfonamide] |  | 6.84

The remaining lines, values ahead:

Row | pIC50 [1] | pIC50 [2] | Compound
17 | 6.02 | 6.96 | CNC(=O)CCNS(=O)(=O)c1ccc(-c2c[nH]c3cc(F)ccc23)cc1 [Example 50, 3-(4-(6-fluoro-1H-indol-3-yl)phenylsulfonamido)-N-methylpropanamide]
18 | 5.68 | 6.89 | O=S(=O)(c1ccc(-c2c[nH]c3cc(F)ccc23)cc1)N1CCNCC1 [Example 4, 6-fluoro-3-(4-(piperazin-1-ylsulfonyl)phenyl)-1H-indole]
19 | 6.09 | 7.00 | NC(=O)[C@H]1C[C@H](NS(=O)(=O)c2ccc(-c3c[nH]c4cc(F)ccc34)cc2)C1 [Example 97, (Trans)-3-(4-(6-fluoro-1H-indol-3-yl)phenyl-sulfonamido)cyclobutanecarboxamide]
20 | 5.96 | 6.52 | O=S(=O)(NCCn1cncn1)c1ccc(-c2c[nH]c3cc(F)ccc23)cc1 [Example 99, 4-(6-fluoro-1H-indol-3-yl)-N-[2-(1H-1,2,4-triazol-1-yl)-ethyl]benzenesulfonamide]
21 | 5.72 | 6.59 | NC(=O)COC1CCN(S(=O)(=O)c2ccc(-c3c[nH]c4cc(F)ccc34)cc2)CC1 [Example 84, 2-[(1-{[4-(6-fluoro-1H-indol-3-yl)phenyl]sulfonyl}piperidin-4-yl)-oxy]acetamide]
22 | 6.08 | 6.52 | C[C@H](O)CNS(=O)(=O)c1ccc(-c2c[nH]c3cc(F)ccc23)cc1 [Example 94, (+)-(S)-4-(6-fluoro-1H-indol-3-yl)-N-(2-hydroxypropyl)-benzenesulfonamide]
23 | 5.89 | 6.85 | NC(=O)[C@H]1C[C@@H](NS(=O)(=O)c2ccc(-c3c[nH]c4cc(F)ccc34)cc2)C1 [Example 95, (cis)-3-(4-(6-fluoro-1H-indol-3-yl)phenylsulfon-amido)cyclobutanecarboxamide]
24 | 5.70 | 6.89 | O=C1CCN(S(=O)(=O)c2ccc(-c3c[nH]c4cc(F)ccc34)cc2)CCN1 [Example 90, 1-((4-(6-fluoro-1H-indol-3-yl)phenyl)sulfonyl)-1,4-diazepan-5-one]
25 | 6.38 | 6.48 | O=S(=O)(c1ccc(-c2c[nH]c3cc(F)ccc23)cc1O)N1CCNCC1 [Example 35, 5-(6-fluoro-1H-indol-3-yl)-2-(piperazin-1-ylsulfonyl)phenol]
26 | 6.03 | 6.77 | O=C1CN(S(=O)(=O)c2ccc(-c3c[nH]c4cc(F)ccc34)cc2)CCN1 [Example 40, 4-((4-(6-fluoro-1H-indol-3-yl)phenyl)sulfonyl)piperazin-2-one]
27 | 5.89 | 6.59 | CN1CC(CNS(=O)(=O)c2ccc(-c3c[nH]c4cc(F)ccc34)cc2)OCC1=O (centres unmarked) [Example 86, 4-(6-fluoro-1H-indol-3-yl)-N-[(4-methyl-5-oxomorpholin-2-yl)methyl]benzenesulfonamide]
28 | 6.13 | 6.92 | CS(=O)(=O)NCCNS(=O)(=O)c1ccc(-c2c[nH]c3cc(F)ccc23)cc1 [Example 21, 4-(6-fluoro-1H-indol-3-yl)-N-(2-(methylsulfonamido)-ethyl)benzenesulfonamide]
29 | 5.33 | 6.60 | O=S(=O)(c1ccc(-c2c[nH]c3cc(F)ccc23)cc1)N1CCOCC1 [Example 5, 4-((4-(6-fluoro-1H-indol-3-yl)phenyl)sulfonyl)morpholine]
30 |  | 6.52 | O=S(=O)(NCCc1c[nH]nn1)c1ccc(-c2c[nH]c3cc(F)ccc23)cc1 [Example 72, N-(2-(1H-1,2,3-triazol-4-yl)ethyl)-4-(6-fluoro-1H-indol-3-yl)benzenesulfonamide]
31 |  | 6.29 | O=C(CCNS(=O)(=O)c1ccc(-c2c[nH]c3cc(F)ccc23)cc1)N1C[C@@H](O)[C@@H](O)C1 [Example 169, N-(3-((cis)-3,4-dihydroxypyrrolidin-1-yl)-3-oxopropyl)-4-(6-fluoro-1H-indol-3-yl)benzenesulfonamide]
32 |  | 6.70 | O=S(=O)(c1ccc(-c2c[nH]c3cc(F)ccc23)cc1)N1CCN[C@@H](CO)C1 [Example 17, (R)-(4-((4-(6-fluoro-1H-indol-3-yl)phenyl)sulfonyl)piperazin-2-yl)methanol]
33 |  | 7.18 | O=S(=O)(NCCO)c1ccc(-c2c[nH]c3cc(F)ccc23)cc1 [Example 157, 4-(6-fluoro-1H-indol-3-yl)-N-(2-hydroxyethyl)-benzenesulfonamide]
34 |  | 6.00 | O=C(NCCNS(=O)(=O)c1ccc(-c2c[nH]c3cc(F)ccc23)cc1)N1CCNCC1 [Example 109, N-(2-(4-(6-fluoro-1H-indol-3-yl)phenylsulfonamido)ethyl) piperazine-1-carboxamide]
35 |  | 6.36 | O=C1CN(S(=O)(=O)c2ccc(-c3c[nH]c4cc(F)ccc34)cc2)CCN1CCO [Example 151, 4-((4-(6-fluoro-1H-indol-3-yl)phenyl)sulfonyl)-1-(2-hydroxyethyl)piperazin-2-one]

From patent publication US10544095B2 (Pfizer Inc., priority 2015, dated 2020)
